Data on seven compounds can be found in ChEMBL document CHEMBL1201862, “PubChem BioAssay data set” (2004).

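Step 1: Grow cells in 96-well plates. Step 2: Expose to compound for 48 hours at 5 concentrations. Step 3: Interpolate endpoints linearly; if unreached, use highest concentration. GI50 = concentration required for 50% inhibition of growth.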 Calls of active or inactive are those of the source. Rule as the data show it: active = GI50 up to about 1.1 µM and inactive = higher.

Among the test systems are CAKI-1; A549; M14; 786-0; Hs-578T; UACC-257; MCF7; ACHN; SK-MEL-2; LOX IMVI; BT-549; DU-145; OVCAR-4; MDA-MB-435; NCI-H226; SNB-75; EKVX; HOP-62; MDA-MB-231; SF-295.
What all share (assay): NCI anticancer screen, dose series, 48 h

Take `CN(Cc1cnc2nc(N)nc(N)c2n1)c1ccc(C(=O)NC(CCC(=O)O)C(=O)O)c2ccccc12` (stereo not given): the GI50 in the assay on CAKI-1 was 0.00489 µM (active); in the assay on A549 it was 0.00286 µM (active); in the assay with M14 it was 0.00869 µM (active); with 786-0 it was 0.00303 µM (active); in the assay on Hs-578T, 0.0982 µM (active); with UACC-257, 0.0425 µM (active). For the same compound, the GI50 is 0.00163 µM (active) in the assay with MCF7; 0.00441 µM (active) in the assay with ACHN; < 0.1 µM (active) in the assay on SK-MEL-2; 0.000508 µM (active) in the assay on LOX IMVI; 0.092 µM (active) with BT-549; 0.00938 µM (active) in the assay with DU-145. Besides, the GI50 in the assay with OVCAR-4 is < 0.1 µM (active); with MDA-MB-435 it was 0.00247 µM (active); with NCI-H226, < 0.1 µM (active); in the assay on SNB-75, 0.0693 µM (active); in the assay with EKVX, < 0.1 µM (active); with HOP-62 it was < 0.0185 µM (active). In addition, the values for the GI50 with MDA-MB-231 and in the assay with SF-295 were < 0.1 µM (active) and 0.00604 µM (active), respectively.
As to `O=C(O)c1ccc(Nc2cnc3ccc(C(F)(F)F)cc3n2)cc1`, the GI50 in the assay with CAKI-1 is 14.4 µM (inactive); with A549, 13.4 µM (inactive); with M14, 38.6 µM (inactive); in the assay on 786-0, 38.9 µM (inactive); with Hs-578T, 7.08 µM (inactive); in the assay on UACC-257, 32.7 µM (inactive). Moreover, the GI50 was 33 µM (inactive) in the assay on MCF7; 18 µM (inactive) with ACHN; 13.2 µM (inactive) with SK-MEL-2; 12.1 µM (inactive) with LOX IMVI; 20.9 µM (inactive) in the assay on BT-549; 23.9 µM (inactive) in the assay on DU-145. For the same compound, the GI50 with OVCAR-4 was 18.9 µM (inactive); with MDA-MB-435, 31.6 µM (inactive); with NCI-H226, 14.2 µM (inactive); with SNB-75 it was 11.7 µM (inactive); with EKVX it was 38.2 µM (inactive); in the assay on HOP-62, 16.1 µM (inactive). Also, the GI50 with MDA-MB-231 was 19.5 µM (inactive); in the assay on SF-295, 19.6 µM (inactive).
`O=C1c2c(F)c(F)c(F)c(F)c2SC2=NCCN12`: the GI50 in the assay with CAKI-1 is 3.1 µM (inactive); with A549 it was 14.7 µM (inactive); in the assay on M14 it was 4.53 µM (inactive); in the assay on 786-0 it was 7.26 µM (inactive); with Hs-578T it was 14.2 µM (inactive); in the assay on UACC-257 it was 8.57 µM (inactive). In addition, the GI50 is 8.15 µM (inactive) in the assay on MCF7; 8.41 µM (inactive) with ACHN; 1.84 µM (inactive) in the assay on SK-MEL-2; 1.61 µM (inactive) with LOX IMVI; 14.8 µM (inactive) in the assay with BT-549; 17.3 µM (inactive) in the assay on DU-145. The GI50 with OVCAR-4 was 3.12 µM (inactive); in the assay with MDA-MB-435, 2.85 µM (inactive); in the assay on NCI-H226, 16.2 µM (inactive); in the assay with SNB-75, 16 µM (inactive); in the assay with EKVX, 19.3 µM (inactive); in the assay on HOP-62 it was 18.1 µM (inactive). Further, the GI50 with MDA-MB-231 is 8.75 µM (inactive); in the assay on SF-295 it was 17.5 µM (inactive).
With `NC(=S)NS(=O)(=O)c1ccc(Cl)cc1`, the GI50 in the assay with CAKI-1, with A549, in the assay with M14, with 786-0, with Hs-578T and with UACC-257 was > 100 µM (inactive) throughout. In addition, the GI50 in the assay with MCF7, in the assay with ACHN, in the assay on SK-MEL-2, with LOX IMVI, with BT-549 and with DU-145 was > 100 µM (inactive) in each case. Besides, the GI50 is > 100 µM (inactive) in the assay on OVCAR-4; > 100 µM (inactive) in the assay with MDA-MB-435; > 100 µM (inactive) with NCI-H226; > 100 µM (inactive) in the assay on SNB-75; 83.2 µM (inactive) in the assay on EKVX; > 100 µM (inactive) in the assay with HOP-62. Also, the GI50 in the assay with MDA-MB-231 and in the assay on SF-295 was > 100 µM (inactive) in each case.
Take `Cc1cc(C)nc(NS(=O)(=O)c2ccc(NNc3c4ccccc4nc4c(C(=O)Nc5ccc(S(=O)(=O)Nc6cc(C)on6)cc5)cccc34)cc2)n1`: the GI50 in the assay on CAKI-1 is 87.5 µM (inactive); in the assay with A549, > 100 µM (inactive); in the assay on M14, 53.2 µM (inactive); in the assay with 786-0, 51.6 µM (inactive); in the assay with Hs-578T it was 51.4 µM (inactive); with UACC-257, 73.6 µM (inactive). The GI50 is 50.8 µM (inactive) with MCF7; 31.3 µM (inactive) with ACHN; 22.7 µM (inactive) with SK-MEL-2; 32.3 µM (inactive) in the assay on LOX IMVI; 72.1 µM (inactive) in the assay with BT-549; 49.2 µM (inactive) in the assay on DU-145. Further, the GI50 in the assay with OVCAR-4 was 46.3 µM (inactive); with MDA-MB-435 it was 41.5 µM (inactive); in the assay with NCI-H226, 25.8 µM (inactive); in the assay on SNB-75, 30.9 µM (inactive); in the assay on EKVX, 19.2 µM (inactive); in the assay with HOP-62, 82 µM (inactive). Besides, the figures for the GI50 with MDA-MB-231 and with SF-295 were 33.1 µM (inactive) and 57.1 µM (inactive), respectively.
In the case of `COC(=O)CC1c2ccccc2N2C(=O)Cc3c([nH]c4ccccc34)C12` (stereo not given), the GI50 with CAKI-1 is > 100 µM (inactive); with A549, > 100 µM (inactive); with M14 it was > 100 µM (inactive); in the assay with 786-0 it was 58.6 µM (inactive); in the assay on Hs-578T it was 25.4 µM (inactive); with UACC-257, > 100 µM (inactive). The GI50 is 34.8 µM (inactive) in the assay on MCF7; > 100 µM (inactive) in the assay on ACHN; > 100 µM (inactive) in the assay on SK-MEL-2; > 100 µM (inactive) in the assay on LOX IMVI; > 100 µM (inactive) in the assay with BT-549; > 100 µM (inactive) in the assay with DU-145. Also, the GI50 in the assay with OVCAR-4 is 31.4 µM (inactive); with MDA-MB-435 it was > 100 µM (inactive); with NCI-H226, > 100 µM (inactive); in the assay with SNB-75, > 100 µM (inactive); with EKVX, > 100 µM (inactive); in the assay with HOP-62, 36.5 µM (inactive). The GI50 is > 100 µM (inactive) with MDA-MB-231 and 7.93 µM (inactive) in the assay with SF-295.
Regarding `CCOC(=O)P(=O)(O)c1ccc(N(C)Cc2ccccc2)cc1`, the GI50 with CAKI-1, in the assay with A549, in the assay with M14, in the assay with 786-0, in the assay on Hs-578T and in the assay on UACC-257 was > 100 µM (inactive) in each case. For the same compound, the GI50 in the assay on MCF7, in the assay on ACHN, in the assay with SK-MEL-2, in the assay on LOX IMVI, with BT-549 and in the assay on DU-145 was > 100 µM (inactive) throughout. Further, the GI50 in the assay on OVCAR-4, in the assay on MDA-MB-435, in the assay with NCI-H226, in the assay with SNB-75, with EKVX and in the assay with HOP-62 was > 100 µM (inactive) throughout. Besides, the GI50 in the assay with MDA-MB-231 and with SF-295 was > 100 µM (inactive) each time.
